Source: PMC5642506 (Oncotarget, 2017)
Where two headings read alike, the source gives them in different places.

How the values were obtained:
[1] = test system: pretreated nonsquamous lung cancer; parameters: method as in PMID 27697581; details: cited from earlier work
[2] = Treatment delivery, dose intensity, discontinuation; assay type: in vivo, human (patients)
Method: (§1) In this dose-finding phase I trial, escalating doses of foretinib were added to standard dose erlotinib as continuous daily dosing. Patients were permitted to remain on study treatment until the development of disease progression, unacceptable toxicity or withdrawal of consent. To facilitate pharmacokinetic studies and ensure tolerability of standard therapy, patients received erlotinib alone daily for 14 days during cycle 1, and foretinib was initiated on day 15, cycle 1 if erlotinib was well tolerated. Daily dosing for both agents thereafter was continuous.

[3] = test system: pretreated EGFR wild type NSCLC; parameters: method as in PMID 27825638; details: cited from earlier work
[4] = Dose escalation: DLT and recommended phase II dose; parameters: species or system human (patients); details: human, in vivo
Method: as §1
Toxicity was evaluated continuously according to the Common Terminology Criteria for Adverse Events (CTCAE), Version 4.0. […] If 1/3 experienced DLT, at least 3 additional patients were treated for a total of 6 evaluable patients treated at that dose level. If 2/3 or 2/6 patients experienced DLT, dose escalation was to be stopped and that dose declared the maximum tolerated dose (MTD), with the next lower dose to be declared the recommended phase II dose for foretinib in combination with erlotinib. While designed as a 3+3 dose escalation study, 3+4 was allowed to ensure that there would be a minimum of 3 evaluable patients without having to reopen a cohort to replace a patient. Intra-patient dose escalation was not allowed. […]

[5] = Pharmacokinetic analyses (plasma, non-compartmental); assay type: in vivo, human (patients)
Method: Patients underwent history and physical examination, performance status, measurement of vital signs, routine hematology and biochemistry studies, thyroid studies and tumor imaging with computed tomography scans at baseline. Blood pressure monitoring and bloodwork was repeated weekly during cycle 1 and then on day 1 of each subsequent cycle. Patients were assessed on day 1 of each subsequent cycle and as needed for toxicity management. Tumor assessment with imaging was performed at every second cycle (8 weeks). Urinalysis was performed on day 1 of each cycle, ophthalmologic examination every 12 weeks, and pharmacokinetic sampling on day 14 and 28 of cycle 1.
Patients were required not to smoke or chew tobacco products for at least 14 days prior to study entry, and to abstain at least until the completion of pharmacokinetic sampling on day 28 of cycle 1.

[6] = test system: EGFR mutant lung cancer cells with upregulated HGF and increased MET copy number; parameters: method as in earlier work; details: preclinical studies; cited from earlier work
[7] = Erlotinib D14, DL1 erlotinib 100 mg daily alone, N=6
[8] = Erlotinib D14, DL2 erlotinib 150 mg daily alone, N=9
[9] = Erlotinib D14, DL3 erlotinib 150 mg daily alone, N=7
[10] = Erlotinib D28, DL1 erlotinib 100 mg + foretinib 30 mg daily, N=7
[11] = Erlotinib D28, DL2 erlotinib 150 mg + foretinib 30 mg daily, N=11
[12] = Erlotinib D28, DL3 erlotinib 150 mg + foretinib 45 mg daily, N=6
[13] = human, plasma, oral, 100 mg, Erlotinib D14, DL1 erlotinib 100 mg daily alone, N=6
[14] = human, plasma, oral, 150 mg, Erlotinib D14, DL2 erlotinib 150 mg daily alone, N=9
[15] = human, plasma, oral, 150 mg, Erlotinib D14, DL3 erlotinib 150 mg daily alone, N=7
[16] = human, plasma, oral, Erlotinib D28, DL1 erlotinib 100 mg + foretinib 30 mg daily, N=7
[17] = human, plasma, oral, Erlotinib D28, DL2 erlotinib 150 mg + foretinib 30 mg daily, N=11
[18] = human, plasma, oral, Erlotinib D28, DL3 erlotinib 150 mg + foretinib 45 mg daily, N=6
[19] = Foretinib D28, DL1 foretinib 30 mg + erlotinib 100 mg daily, N=7
[20] = Foretinib D28, DL2 foretinib 30 mg + erlotinib 150 mg daily, N=11
[21] = Foretinib D28, DL3 foretinib 45 mg + erlotinib 150 mg daily, N=6
[22] = human, plasma, oral, Foretinib D28, DL1 foretinib 30 mg + erlotinib 100 mg daily, N=7
[23] = human, plasma, oral, Foretinib D28, DL2 foretinib 30 mg + erlotinib 150 mg daily, N=11
[24] = human, plasma, oral, Foretinib D28, DL3 foretinib 45 mg + erlotinib 150 mg daily, N=6

Compound: C[C@@H](Oc1cc(-c2cnn(C3CCNCC3)c2)cnc1N)c1c(Cl)ccc(F)c1Cl [crizotinib]
- RP2D, crizotinib ([1]; BID, plus erlotinib 100 mg daily): 150 mg

Compound: C#Cc1cccc(Nc2ncnc3cc(OCCOC)c(OCCOC)cc23)c1 [erlotinib]
- % receiving >=90% planned dose intensity, Erlotinib ([2]; DL1 (N=9), 30/100 mg): 78%
- % receiving >=90% planned dose intensity, Erlotinib ([2]; DL2 (n=15), 30/150 mg): 40%
- % receiving >=90% planned dose intensity, Erlotinib ([2]; DL3 (N=7), 45/150 mg): 43%
- RP2D, erlotinib ([1]; daily, plus crizotinib 150 mg BID): 100 mg
- erlotinib exposure, pharmacokinetic interaction ([1]; with crizotinib): increased erlotinib exposure
- PFS [3]: 1.8 months
- recommended phase II dose, erlotinib [4]: 150 mg
- Cavg [5, 7]: 1254 (SD 622) ng/mL
- Clast [5, 7]: 1106 (SD 710) ng/mL
- Cmax [5, 7]: 1719 (SD 624) ng/mL
- Cmax Dose Norm [5, 7]: 17.2 (SD 6.24) ng/mL/mg
- Cmin [5, 7]: 815 (SD 641) ng/mL
- Tmin [5, 7]: 4.17 (SD 9.71) hr
- Cavg [5, 8]: 1466 (SD 507) ng/mL
- Clast [5, 8]: 1137 (SD 419) ng/mL
- Cmax [5, 8]: 2335 (SD 770) ng/mL
- Cmax Dose Norm [5, 8]: 15.6 (SD 5.13) ng/mL/mg
- Cmin [5, 8]: 1047 (SD 437) ng/mL
- Tmin [5, 8]: 13.33 (SD 12.65) hr
- Cavg [5, 9]: 1548 (SD 621) ng/mL
- Clast [5, 9]: 1247 (SD 565) ng/mL
- Cmax Dose Norm [5, 9]: 14.91 (SD 4.14) ng/mL/mg
- Cmin [5, 9]: 1027 (SD 507) ng/mL
- Tmin [5, 9]: 4.71 (SD 8.77) hr
- Cavg [5, 10]: 1497 (SD 975) ng/mL
- Clast [5, 10]: 1300 (SD 861.44) ng/mL
- Cmax [5, 10]: 2387 (SD 1707) ng/mL
- Cmax Dose Norm [5, 10]: 23.87 (SD 17.07) ng/mL/mg
- Cmin [5, 10]: 1092 (SD 894) ng/mL
- Tmin [5, 10]: 11.2 (SD 12.07) hr
- Cavg [5, 11]: 1579 (SD 643) ng/mL
- Clast [5, 11]: 1343 (SD 687) ng/mL
- Cmax Dose Norm [5, 11]: 17.64 (SD 6.49) ng/mL/mg
- Cmin [5, 11]: 1293 (SD 688) ng/mL
- Tmin [5, 11]: 13.27 (SD 12.34) hr
- AUCt [5, 12]: 40765 (SD 16673) ng*hr/mL
- Cavg [5, 12]: 1699 (SD 695) ng/mL
- Clast [5, 12]: 1283 (SD 697) ng/mL
- Cmax Dose Norm [5, 12]: 16.48 (SD 4.78) ng/mL/mg
- Cmin [5, 12]: 1244 (SD 725) ng/mL
- Tmin [5, 12]: 16.17 (SD 12.14) hr
- AUC(0-t) [5, 13]: 30100 ng·h/mL
- Tmax [5, 13]: 7.67 h
- clearance [5, 13]: 28.6 mL/min
- AUC(0-t) [5, 14]: 35200 ng·h/mL
- Tmax [5, 14]: 2.22 h
- clearance [5, 14]: 85.4 mL/min
- AUC(0-t) [5, 15]: 35500 ng·h/mL
- Tmax [5, 15]: 3.86 h
- clearance [5, 15]: 79.9 mL/min
- Cmax ([5]; human, plasma, oral, 150 mg, Erlotinib D14, DL3 erlotinib 150 mg daily alone, N=7, read-out: Cmax): 2240 ng/mL
- AUC(0-t) [5, 16]: 35900 ng·h/mL
- Tmax [5, 16]: 2.29 h
- clearance [5, 16]: 33.9 mL/min
- AUC(0-t) [5, 17]: 36200 ng·h/mL
- Tmax [5, 17]: 2.64 h
- clearance [5, 17]: 76.1 mL/min
- Tmax [5, 18]: 2.33 h
- clearance [5, 18]: 76.2 mL/min
- Cmax ([5]; human, plasma, oral, Erlotinib D28, DL3 erlotinib 150 mg + foretinib 45 mg daily, N=6, read-out: Cmax): 2470 ng/mL

Compound: COc1cc2c(Oc3ccc(NC(=O)C4(C(=O)Nc5ccc(F)cc5)CC4)cc3F)ccnc2cc1OCCCN1CCOCC1 [foretinib]
- % receiving >=90% planned dose intensity, Foretinib Cycle 1 ([2]; DL1 (N=9), 30/100 mg): 100%
- % receiving >=90% planned dose intensity, Foretinib Cycle >= 2 ([2]; DL1 (N=9), 30/100 mg): 50%
- % receiving >=90% planned dose intensity, Foretinib Cycle 1 ([2]; DL2 (n=15), 30/150 mg): 67%
- % receiving >=90% planned dose intensity, Foretinib Cycle >= 2 ([2]; DL2 (n=15), 30/150 mg): 31%
- % receiving >=90% planned dose intensity, Foretinib Cycle 1 ([2]; DL3 (N=7), 45/150 mg): 86%
- % receiving >=90% planned dose intensity, Foretinib Cycle >= 2 ([2]; DL3 (N=7), 45/150 mg): 0
- recommended phase II dose, foretinib [4]: 30 mg
- Cavg [5, 19]: 30.35 (SD 9.23) ng/mL
- Clast [5, 19]: 27.29 (SD 10.66) ng/mL
- Cmax Dose Norm [5, 19]: 1.45 (SD 0.59) ng/mL/mg
- Cmin [5, 19]: 22.79 (SD 7.74) ng/mL
- Tmin [5, 19]: 12.29 (SD 11.34) hr
- Cavg [5, 20]: 29.17 (SD 13.58) ng/mL
- Clast [5, 20]: 24.12 (SD 9.34) ng/mL
- Cmax Dose Norm [5, 20]: 1.49 (SD 0.74) ng/mL/mg
- Cmin [5, 20]: 22.47 (SD 10.61) ng/mL
- Tmin [5, 20]: 13.36 (SD 12.23) hr
- Cavg [5, 21]: 42.07 (SD 17.31) ng/mL
- Clast [5, 21]: 34.22 (SD 17.3) ng/mL
- Cmax Dose Norm [5, 21]: 1.21 (SD 0.4) ng/mL/mg
- Cmin [5, 21]: 31.96 (SD 18.16) ng/mL
- Tmin [5, 21]: 12.0 (SD 13.15) hr
- AUC(0-t) [5, 22]: 728 ng·h/mL
- Tmax [5, 22]: 3.14 h
- clearance [5, 22]: 419 mL/min
- Cmax ([5]; human, plasma, oral, Foretinib D28, DL1 foretinib 30 mg + erlotinib 100 mg daily, N=7, read-out: Cmax): 43.4 ng/mL
- AUC(0-t) [5, 23]: 681 ng·h/mL
- Tmax [5, 23]: 3.55 h
- clearance [5, 23]: 492 mL/min
- Cmax ([5]; human, plasma, oral, Foretinib D28, DL2 foretinib 30 mg + erlotinib 150 mg daily, N=11, read-out: Cmax): 44.8 ng/mL
- AUC(0-t) [5, 24]: 1010 ng·h/mL
- Tmax [5, 24]: 3.5 h
- clearance [5, 24]: 829 mL/min
- Cmax ([5]; human, plasma, oral, Foretinib D28, DL3 foretinib 45 mg + erlotinib 150 mg daily, N=6, read-out: Cmax): 55.9 ng/mL
- sensitivity when added to erlotinib [6]: significantly increases sensitivity
